Assay results taken from ChEMBL document CHEMBL3272178, “Prepartion of 16alpha-alkoxy and 16alpha-acyloxy derivatives of 21-chloro-17-acyloxy corticosteroids and determination of their vasoconstrictor activities in humans” (J Med Chem, 1976).
Calls of active or inactive are those of the source. The calls are words filed in the database; no cut-off is given here.

What was measured:
Homo sapiens [1] = organism: Homo sapiens; test: Vasoconstrictor activity in human relative to betamethasone valerate; type: functional, organism-based
Homo sapiens [2] = organism: Homo sapiens; test: Skin stripping in human by stripped-skin assay relative to betamethasone valerate; type: functional, organism-based

Row | Structure (SMILES) | Activity (Homo sapiens [1]) | Activity (Homo sapiens [2])
1 | CO[C@@H]1C[C@H]2[C@@H]3CCC4=CC(=O)CC[C@]4(C)[C@@]3(F)[C@@H](O)C[C@]2(C)[C@@]1(OC(C)=O)C(=O)CCl | inactive | inactive
2 | CC(=O)O[C@@H]1C[C@H]2[C@@H]3CCC4=CC(=O)C=C[C@]4(C)[C@@]3(F)[C@@H](O)C[C@]2(C)[C@@]1(OC(C)=O)C(=O)CCl | inactive | inactive
3 | CCCCC(=O)O[C@]1(C(=O)CCl)[C@H](OC)C[C@H]2[C@@H]3CCC4=CC(=O)CC[C@]4(C)[C@@]3(F)[C@@H](O)C[C@@]21C | inactive | inactive
4 | CCC(=O)O[C@]1(C(=O)CCl)[C@H](OC(C)=O)C[C@H]2[C@@H]3CCC4=CC(=O)C=C[C@]4(C)[C@@]3(F)[C@@H](O)C[C@@]21C | inactive | inactive
5 | CCO[C@@H]1C[C@H]2[C@@H]3CCC4=CC(=O)CC[C@]4(C)[C@@]3(F)[C@@H](O)C[C@]2(C)[C@@]1(OC(C)=O)C(=O)CCl | inactive | inactive
